From patent publication US20250079000A1, “METHODS AND MARKERS FOR DIAGNOSIS OF PARKINSON'S DISEASE” (Berg LLC, priority 2021, published 2025) come the findings set out here.

Data set [1] in a line: NCAM short-term stability in plasma QC samples. To be noted: HQC, MQC, LQC; 4° C. and 24° C.; 2, 4 and 24 hours; acceptance criteria −25% to 25%. It counts as in vitro ADME, human. Here is the method:
In the short-term stability test, three levels of QC samples were thawed from the −80° C. freezer and incubated at 4° C. or RT (18-24° C.) for 2, 4 or 24 h. The samples were then assayed and compared with samples freshly thawed from the −80° C. freezer and assayed along with the samples incubated at different conditions on the day of the assay.
Precision analyses were performed at high, medium and low concentrations (HQC, MQC, and LQC, respectively). For each concentration, twelve experiments were performed. […] Accuracy analyses were performed at two concentrations of NCAM: 10,000 pg/mL and 2,000 pg/mL. Five experiments were performed at each concentration. Recovery percentages for all experiments at both concentrations (FIG. 28C) were within the acceptance criteria of greater than or equal to 80% and less than or equal to 120%. Parallelism analyses were performed using six individual plasma samples at four dilutions. Recovery percentages (FIG. 28D) were within the acceptance criteria of greater than or equal to 75% and less than or equal to 125% for all samples tested at each of the four dilutions. Short-term stability analyses were performed at two temperatures: 4° C. and 24° C. For each temperature, high, medium and low concentration samples (HQC, MQC, and LQC, respectively) were maintained at 2 hours, 4 hours, and 24 hours.

The nature of data set [2]: Short-term and long-term stability of NAP spiked in 2.5% BSA standard solution. It counts as physicochemical. To be noted: for Bias %, long-term stability: LTS (88 days, −80 C.); for Bias %, short-term stability: STS (24 hrs, 5 C.). The source says:
(§1) Detection and Quantitation of NAP using LC-MS/MS. To quantify NAP in human K2-EDTA plasma, the quantification method using LC-MS/MS was developed. Due to low circulating levels of NAP, the sensitivity of quantification was improved using derivatization of isobutyl chloroformate in the sample preparation. The validation performance of the NAP assay is summarized in Table 8-15, including linearity, precision, matrix effect, system suitability, short-term stability, long-term stability, and reproducibility in the autosampler. […] The results of validation assessed by QCs met acceptance criteria (Table 9-15).

Data set [3] in a line: Stability of NAP spiked in human plasma (short-term, long-term, freeze-thaw, re-injection). It counts as in vitro ADME.
Text: as §1

Setting [4] is: HQC, expected value 54.2 ng/mL, acceptable range 27.8-80.7.
Where [5] appears, read: LQC, expected value 3.2 ng/mL, acceptable range 2.33-4.03.

On to “P13591 (NCAM): Neural Cell Adhesion Molecule 1, cell adhesion protein, Uniprot P13591”, for which the “Short-term stability of plasma samples” value in data set [1] is recorded as “within acceptance criteria”.
Take `CC(=O)NCCCCN` [NAP, N-acetyl putrescine]: in data set [2] (L1, 1.0 ng/mL), the “Bias %, long-term stability” value is on record as 10.6% and the “Bias %, short-term stability” value is given as −3.6%. Moreover, in data set [2] (L8, 85.0 ng/mL), the “Bias %, long-term stability” value is recorded as −8.1%. Also, in data set [2] (substock, 2000 ng/mL), the “Bias %, short-term stability” value is −6.7%. Besides, in data set [3] (setting [4]), the “Mean concentration, freeze-thaw stability (4x)” value is recorded as 42.4 ng/mL; the “Mean concentration, long-term stability (84 days, −80° C.)” value was found to be 63.4 ng/mL; the “Mean concentration, re-injection stability in autosampler (8 days)” value worked out at 46.5 ng/mL; the “Mean concentration, short-term stability (24 h, RT)” value was 41.0 ng/mL. In data set [3] (setting [5]), the “Mean concentration, freeze-thaw stability (4x)” value worked out at 3.1 ng/mL; the “Mean concentration, long-term stability (84 days, −80° C.)” value worked out at 3.2 ng/mL; the “Mean concentration, re-injection stability in autosampler (8 days)” value worked out at 3.2 ng/mL; the “Mean concentration, short-term stability (24 h, RT)” value worked out at 3.1 ng/mL.
